Several values for one entry are separate records, joined by “and”; a condition that tells them apart may be missing. Equal entries are not always repeated.
Experiment: Short-term stability of vitamin D3 and vitamin D3 palmitate in liquid vitamin formulations at 40° C. (HPLC assay)
Type: physicochemical
Settings: for Vitamin D content on storage: 40° C.
Protocol: In addition to the above, the vitamin formulation contains flavorants, stabilizer of vitamins, and about 1.0% polysorbate 80 as surfactant. As appreciated by the skilled artisan, appropriate overages of vitamins are included in order to assure meeting the label claims. The example composition contains 1.86:1 ratio by weight of glycerine to water. The pH is 5.0 which is adjusted by using an appropriate ratio of ascorbic acid to sodium ascorbate.
Vitamin D was analyzed by a HPLC assay as described by Matthew G. Sliva, et al., "Reversed-Phase Liquid Chromatographic Determination of Vitamin D in Infant Formulas and Enteral Nutritionals," J Assoc. Off. Anal. Chem., 75, 566, 1992, except that saponification conditions of 70° C. for 40 minutes were employed.
Stability of vitamins D3 and D3 palmitate were compared in various vitamin formulations containing different amounts of water and glycerin and at different pHs. The other ingredients and method of pH adjustment were as described in Example 1. The results are in Tables 2-5. Each batch number represents a different liquid vitamin formulation. The amount of glycerin varied between 650 and 850 mg/ml, depending upon the amount of water. "Vit" represents vitamin, "Desc." represents description,"Vit D3" represents vitamin D3, and "Vit D3P" or "D3 P" represents vitamin D3 palmitate. Table 1 lists the half-life (T50) values, i.e., time to degrade to 50% of the starting concentration of vitamins D3 and D3 palmitate at 40° C., These T50 values were calculated by fitting the data to first order degradation rate.

half-life (liquid vitamin formulation, pH 5.6, Time in Weeks for 50% Degradation (T50)): 113 days | Vitamin D content on storage (pH 3.2, 252 mg/ml water, age 0 weeks, Batch #1 (D3), #2 (D3 P)): 810 IU/ml | Vitamin D content on storage (pH 3.2, 252 mg/ml water, age 2 weeks, Batch #1 (D3), #2 (D3 P)): 715 IU/ml and 717 IU/ml | Vitamin D content on storage (pH 3.2, 252 mg/ml water, age 4 weeks, Batch #1 (D3), #2 (D3 P)): 668 IU/ml | Vitamin D content on storage (pH 3.2, 252 mg/ml water, age 6 weeks, Batch #1 (D3), #2 (D3 P)): 598 IU/ml and 612 IU/ml | Vitamin D content on storage (pH 3.2, 252 mg/ml water, age 8 weeks, Batch #1 (D3), #2 (D3 P)): 544 IU/ml and 574 IU/ml | Vitamin D content on storage (pH 3.2, 252 mg/ml water, age 12 weeks, Batch #1 (D3), #2 (D3 P)): 471 IU/ml and 443 IU/ml | Vitamin D content on storage (pH 3.2, 252 mg/ml water, age 16 weeks, Batch #1 (D3), #2 (D3 P)): 397 IU/ml and 385 IU/ml | Vitamin D content on storage (pH 3.2, 390 mg/ml water, age 0 weeks, Batch #3 (D3), #4 (D3 P)): 430 IU/ml and 425 IU/ml | Vitamin D content on storage (pH 3.2, 390 mg/ml water, age 1 week, Batch #3 (D3), #4 (D3 P)): 404 IU/ml and 405 IU/ml | Vitamin D content on storage (pH 3.2, 390 mg/ml water, age 2 weeks, Batch #3 (D3), #4 (D3 P)): 405 IU/ml and 403 IU/ml | Vitamin D content on storage (pH 3.2, 390 mg/ml water, age 4 weeks, Batch #3 (D3), #4 (D3 P)): 394 IU/ml and 397 IU/ml | Vitamin D content on storage (pH 3.2, 390 mg/ml water, age 8 weeks, Batch #3 (D3), #4 (D3 P)): 384 IU/ml and 381 IU/ml | Vitamin D content on storage (pH 3.2, 390 mg/ml water, age 12 weeks, Batch #3 (D3), #4 (D3 P)): 374 IU/ml and 370 IU/ml | Vitamin D content on storage (pH 3.2, 390 mg/ml water, age 16 weeks, Batch #3 (D3), #4 (D3 P)): 366 IU/ml and 362 IU/ml | Vitamin D content on storage (pH 4.2, 252 mg/ml water, age 0 weeks, Batch #5 (D3), #6 (D3 P)): 408 IU/ml and 405 IU/ml | Vitamin D content on storage (pH 4.2, 252 mg/ml water, age 1 week, Batch #5 (D3), #6 (D3 P)): 391 IU/ml and 386 IU/ml | Vitamin D content on storage (pH 4.2, 252 mg/ml water, age 2 weeks, Batch #5 (D3), #6 (D3 P)): 368 IU/ml and 371 IU/ml | Vitamin D content on storage (pH 4.2, 252 mg/ml water, age 4 weeks, Batch #5 (D3), #6 (D3 P)): 314 IU/ml and 316 IU/ml | Vitamin D content on storage (pH 4.2, 252 mg/ml water, age 8 weeks, Batch #5 (D3), #6 (D3 P)): 234 IU/ml | Vitamin D content on storage (pH 4.2, 252 mg/ml water, age 12 weeks, Batch #5 (D3), #6 (D3 P)): 145 IU/ml and 146 IU/ml | Vitamin D content on storage (pH 4.2, 252 mg/ml water, age 16 weeks, Batch #5 (D3), #6 (D3 P)): 145 IU/ml and 144 IU/ml | Vitamin D content on storage (pH 4.2, 390 mg/ml water, age 0 weeks, Batch #7 (D3), #8 (D3 P)): 414 IU/ml and 418 IU/ml | Vitamin D content on storage (pH 4.2, 390 mg/ml water, age 1 week, Batch #7 (D3), #8 (D3 P)): 397 IU/ml and 395 IU/ml | Vitamin D content on storage (pH 4.2, 390 mg/ml water, age 2 weeks, Batch #7 (D3), #8 (D3 P)): 395 IU/ml and 399 IU/ml | Vitamin D content on storage (pH 4.2, 390 mg/ml water, age 4 weeks, Batch #7 (D3), #8 (D3 P)): 379 IU/ml and 371 IU/ml | Vitamin D content on storage (pH 4.2, 390 mg/ml water, age 8 weeks, Batch #7 (D3), #8 (D3 P)): 353 IU/ml and 347 IU/ml | Vitamin D content on storage (pH 4.2, 390 mg/ml water, age 12 weeks, Batch #7 (D3), #8 (D3 P)): 339 IU/ml and 328 IU/ml | Vitamin D content on storage (pH 4.2, 390 mg/ml water, age 16 weeks, Batch #7 (D3), #8 (D3 P)): 319 IU/ml and 315 IU/ml | Vitamin D content on storage (pH 5.0, 252 mg/ml water, age 0 weeks, Batch #9 (D3), #10 (D3 P)): 426 IU/ml and 424 IU/ml | Vitamin D content on storage (pH 5.0, 252 mg/ml water, age 1 week, Batch #9 (D3), #10 (D3 P)): 394 IU/ml and 397 IU/ml | Vitamin D content on storage (pH 5.0, 252 mg/ml water, age 2 weeks, Batch #9 (D3), #10 (D3 P)): 363 IU/ml | Vitamin D content on storage (pH 5.0, 252 mg/ml water, age 4 weeks, Batch #9 (D3), #10 (D3 P)): 335 IU/ml and 329 IU/ml | Vitamin D content on storage (pH 5.0, 252 mg/ml water, age 8 weeks, Batch #9 (D3), #10 (D3 P)): 244 IU/ml | Vitamin D content on storage (pH 5.0, 252 mg/ml water, age 12 weeks, Batch #9 (D3), #10 (D3 P)): 201 IU/ml and 193 IU/ml | Vitamin D content on storage (pH 5.0, 252 mg/ml water, age 16 weeks, Batch #9 (D3), #10 (D3 P)): 123 IU/ml and 125 IU/ml | Vitamin D content on storage (pH 5.0, 390 mg/ml water (so in the source), age 0 weeks, Batch #11 (D3), #12 (D3 P)): 433 IU/ml and 437 IU/ml | Vitamin D content on storage (pH 5.0, 390 mg/ml water (so in the source), age 1 week, Batch #11 (D3), #12 (D3 P)): 404 IU/ml and 414 IU/ml | Vitamin D content on storage (pH 5.0, 390 mg/ml water (so in the source), age 2 weeks, Batch #11 (D3), #12 (D3 P)): 380 IU/ml and 383 IU/ml | Vitamin D content on storage (pH 5.0, 390 mg/ml water (so in the source), age 4 weeks, Batch #11 (D3), #12 (D3 P)): 364 IU/ml | Vitamin D content on storage (pH 5.0, 390 mg/ml water (so in the source), age 8 weeks, Batch #11 (D3), #12 (D3 P)): 306 IU/ml and 300 IU/ml | Vitamin D content on storage (pH 5.0, 390 mg/ml water (so in the source), age 12 weeks, Batch #11 (D3), #12 (D3 P)): 264 IU/ml and 263 IU/ml | Vitamin D content on storage (pH 5.0, 390 mg/ml water (so in the source), age 16 weeks, Batch #11 (D3), #12 (D3 P)): 188 IU/ml and 186 IU/ml | Vitamin D content on storage (pH 5.0, 390 mg/ml water, age 0 weeks, Batch #13 (D3), #14 (D3 P)): 593 IU/ml and 599 IU/ml | Vitamin D content on storage (pH 5.0, 390 mg/ml water, age 1 week, Batch #13 (D3), #14 (D3 P)): 573 IU/ml and 570 IU/ml | Vitamin D content on storage (pH 5.0, 390 mg/ml water, age 4 weeks, Batch #13 (D3), #14 (D3 P)): 554 IU/ml and 555 IU/ml | Vitamin D content on storage (pH 5.0, 390 mg/ml water, age 8 weeks, Batch #13 (D3), #14 (D3 P)): 510 IU/ml and 500 IU/ml | Vitamin D content on storage (pH 5.0, 390 mg/ml water, age 12 weeks, Batch #13 (D3), #14 (D3 P)): 525 IU/ml and 508 IU/ml | Vitamin D content on storage (pH 5.0, 390 mg/ml water, age 16 weeks, Batch #13 (D3), #14 (D3 P)): 490 IU/ml | Vitamin D content on storage (pH 5.0, 435 mg/ml water, age 0 weeks, Batch #15 (D3), #16 (D3 P)): 431 IU/ml and 433 IU/ml | Vitamin D content on storage (pH 5.0, 435 mg/ml water, age 1 week, Batch #15 (D3), #16 (D3 P)): 418 IU/ml | Vitamin D content on storage (pH 5.0, 435 mg/ml water, age 2 weeks, Batch #15 (D3), #16 (D3 P)): 395 IU/ml and 404 IU/ml | Vitamin D content on storage (pH 5.0, 435 mg/ml water, age 4 weeks, Batch #15 (D3), #16 (D3 P)): 403 IU/ml and 394 IU/ml | Vitamin D content on storage (pH 5.0, 435 mg/ml water, age 8 weeks, Batch #15 (D3), #16 (D3 P)): 364 IU/ml | Vitamin D content on storage (pH 5.0, 435 mg/ml water, age 12 weeks, Batch #15 (D3), #16 (D3 P)): 343 IU/ml and 338 IU/ml | Vitamin D content on storage (pH 5.0, 435 mg/ml water, age 16 weeks, Batch #15 (D3), #16 (D3 P)): 256 IU/ml
SMILES: C=C1CC[C@H](OC(=O)CCCCCCCCCCCCCCC)C/C1=C/C=C1\CCC[C@]2(C)[C@@H]([C@H](C)CCCC(C)C)CC[C@@H]12 [Vitamin D3 P, vitamin D3 palmitate]

Source: patent US5478816A, “Liquid vitamin formulations containing vitamin D esters” (Bristol-Myers Squibb Company, priority 1993, dated 1995)
